For this series, the system named is CCRIS mutagenicity, Ames/micronucleus/aberration tests. Briefly: CCRIS mutagenicity studies.
Setting [1] is: Test System: AMES SALMONELLA TYPHIMURIUM, Strain/Indicator: TA97, Metabolic Activation: HAMSTER, LIVER, S-9, AROCLOR 1254 (10 OR 30%), Method: PREINCUBATION
Setting [2] is: Test System: AMES SALMONELLA TYPHIMURIUM, Strain/Indicator: TA97, Metabolic Activation: NONE, Method: PREINCUBATION
Where [3] appears, read: Test System: AMES SALMONELLA TYPHIMURIUM, Strain/Indicator: TA97, Metabolic Activation: RAT, LIVER, S-9, AROCLOR 1254 (10 OR 30%), Method: PREINCUBATION
Setting [4] is: Test System: AMES SALMONELLA TYPHIMURIUM, Strain/Indicator: TA98, Metabolic Activation: HAMSTER, LIVER, S-9, AROCLOR 1254 (10 OR 30%), Method: PREINCUBATION
[5] abbreviates: Test System: AMES SALMONELLA TYPHIMURIUM, Strain/Indicator: TA98, Metabolic Activation: NONE, Method: PREINCUBATION
The mark [6] stands for this setting: Test System: AMES SALMONELLA TYPHIMURIUM, Strain/Indicator: TA98, Metabolic Activation: RAT, LIVER, S-9, AROCLOR 1254 (10 OR 30%), Method: PREINCUBATION
Where [7] appears, read: Test System: AMES SALMONELLA TYPHIMURIUM, Strain/Indicator: TA100, Metabolic Activation: HAMSTER, LIVER, S-9, AROCLOR 1254 (10 OR 30%), Method: PREINCUBATION
Setting [8] is: Test System: AMES SALMONELLA TYPHIMURIUM, Strain/Indicator: TA100, Metabolic Activation: NONE, Method: PREINCUBATION
Where [9] appears, read: Test System: AMES SALMONELLA TYPHIMURIUM, Strain/Indicator: TA100, Metabolic Activation: RAT, LIVER, S-9, AROCLOR 1254 (10 OR 30%), Method: PREINCUBATION
Setting [10] is: Test System: AMES SALMONELLA TYPHIMURIUM, Strain/Indicator: TA1535, Metabolic Activation: HAMSTER, LIVER, S-9, AROCLOR 1254 (10 OR 30%), Method: PREINCUBATION
[11] abbreviates: Test System: AMES SALMONELLA TYPHIMURIUM, Strain/Indicator: TA1535, Metabolic Activation: NONE, Method: PREINCUBATION
Setting [12] is: Test System: AMES SALMONELLA TYPHIMURIUM, Strain/Indicator: TA1535, Metabolic Activation: RAT, LIVER, S-9, AROCLOR 1254 (10 OR 30%), Method: PREINCUBATION
The mark [13] stands for this setting: Test System: AMES SALMONELLA TYPHIMURIUM, Strain/Indicator: TA1537, Metabolic Activation: NONE, Method: PREINCUBATION
[14] abbreviates: Test System: AMES SALMONELLA TYPHIMURIUM, Strain/Indicator: TA1537, Metabolic Activation: RAT, LIVER, S-9, AROCLOR 1254 (10%), Method: PREINCUBATION
Where [15] appears, read: Test System: AMES SALMONELLA TYPHIMURIUM, Strain/Indicator: TA102, Metabolic Activation: NONE, Method: STANDARD PLATE.
The mark [16] stands for this setting: Test System: AMES SALMONELLA TYPHIMURIUM, Strain/Indicator: TA98, Metabolic Activation: NONE, Method: STANDARD PLATE.

Calls of active or inactive are those of the source. No rule for the calls is given here.

`Cc1ccccc1C=O`: the mutagenic call was “inactive; negative” under setting [1]; “inactive; negative” under setting [2]; “inactive; negative” under setting [3]; “inactive; negative” under setting [4]; “inactive; negative” under setting [5]; “inactive; negative” under setting [6]. Besides, the mutagenic call is “inactive; negative” under setting [7]; “inactive; negative” under setting [8]; “inactive; negative” under setting [9]; “inactive; negative” under setting [10]; “inactive; negative” under setting [11]; “inactive; negative” under setting [12]. The mutagenic call reads like this: (Test System: AMES SALMONELLA TYPHIMURIUM, Strain/Indicator: TA1537, Metabolic Activation: HAMSTER, LIVER, S-9, AROCLOR 1254 (10 OR 30%), Method: PREINCUBATION) “inactive; negative”; under setting [13], “inactive; negative”; under setting [14], “inactive; negative”.
With `O=c1c(O[C@@H]2O[C@H](CO)[C@@H](O)[C@H](O)[C@H]2O)c(-c2ccc(O)c(O)c2)oc2cc(O)cc(O)c12`, the mutagenic call runs as follows: (Test System: AMes Salmonella typhimurium, Strain/Indicator: TA98, Metabolic Activation: None, Method: Standard plate) “active; positive”; (Test System: Ames Salmonella typhimurium, Strain/Indicator: 98, Metabolic Activation: Rat, Liver, S-9, Aroclor 1254, Method: Standard plate) “active; positive”; (Test System: Ames Salmonella typhimurium, Strain/Indicator: TA100, Metabolic Activation: None, Method: Standard plate) “inactive; negative”; (Test System: Ames Salmonella typhimurium, Strain/Indicator: TA100, Metabolic Activation: Rat, Liver, S-9, Aroclor 1254, Method: Standard plate) “active; positive”.
As for `Cc1cc(C)c2c3c(cc4ccccc42)-c2ccccc2-c13`, under “Test System: AMES SALMONELLA TYPHIMURIUM, Strain/Indicator: TA100, Metabolic Activation: RAT, LIVER, S-9, AROCLOR 1254”, the mutagenic call is “active; positive”.
Regarding `O=C(O)CS`, the mutagenic call runs as follows: under setting [1], “inactive; negative”; under setting [2], “inactive; negative”; under setting [3], “inactive; negative”; (Test System: AMES SALMONELLA TYPHIMURIUM, Strain/Indicator: TA98, Metabolic Activation: HAMSTER, LIVER, S-9, AROCLOR 1254 (10%), Method: PREINCUBATION) “inactive; negative”; under setting [4], “inactive; negative”; under setting [5], “inactive; negative”. For the same compound, the mutagenic call by setting is: (Test System: AMES SALMONELLA TYPHIMURIUM, Strain/Indicator: TA98, Metabolic Activation: RAT, LIVER, S-9, AROCLOR 1254 (10%), Method: PREINCUBATION) “inactive; negative”; under setting [6], “inactive; negative”; (Test System: AMES SALMONELLA TYPHIMURIUM, Strain/Indicator: TA100, Metabolic Activation: HAMSTER, LIVER, S-9, AROCLOR 1254 (10%), Method: PREINCUBATION) “inactive; negative”; under setting [7], “inactive; negative”; under setting [8], “inactive; negative”; (Test System: AMES SALMONELLA TYPHIMURIUM, Strain/Indicator: TA100, Metabolic Activation: RAT, LIVER, S-9, AROCLOR 1254 (10%), Method: PREINCUBATION) “inactive; negative”. Further, the mutagenic call was “inactive; negative” under setting [9]; “inactive; negative” (Test System: AMES SALMONELLA TYPHIMURIUM, Strain/Indicator: TA1535, Metabolic Activation: HAMSTER, LIVER, S-9, AROCLOR 1254 (10%), Method: PREINCUBATION); “inactive; negative” under setting [10]; “inactive; negative” under setting [11]; “inactive; negative” (Test System: AMES SALMONELLA TYPHIMURIUM, Strain/Indicator: TA1535, Metabolic Activation: RAT, LIVER, S-9, AROCLOR 1254 (10%), Method: PREINCUBATION); “inactive; negative” under setting [12]. In addition, the mutagenic call (Test System: AMES SALMONELLA TYPHIMURIUM, Strain/Indicator: TA1537, Metabolic Activation: HAMSTER, LIVER, S-9, AROCLOR 1254 (10%), Method: PREINCUBATION) is “inactive; negative”; the mutagenic call under setting [13] was “inactive; negative”; the mutagenic call under setting [14] was “inactive; negative”.
On to `O=BOO`, for which the mutagenic call was “active; positive” under setting [15]; “active; positive” (Test System: E. COLI, Strain/Indicator: WP2 (PKM101), Metabolic Activation: NONE, Method: STANDARD PLATE); “active; positive” (Test System: E. COLI, Strain/Indicator: WP2 UVRA (PKM101), Metabolic Activation: NONE, Method: STANDARD PLATE).
`O=Nc1ccc2ccc3cccc4ccc1c2c34`: the mutagenic call by setting is: (Test System: AMES SALMONELLA TYPHIMURIUM, Strain/Indicator: TA98 (1,8-DNP6), Metabolic Activation: NONE, Method: STANDARD PLATE) “active; positive”; (Test System: AMES SALMONELLA TYPHIMURIUM, Strain/Indicator: TA98(1,8-DNP6), Metabolic Activation: NONE, Method: STANDARD PLATE) “active; positive”; (Test System: AMES SALMONELLA TYPHIMURIUM, Strain/Indicator: TA98 (NR), Metabolic Activation: NONE, Method: STANDARD PLATE) “active; positive”; (Test System: AMES SALMONELLA TYPHIMURIUM, Strain/Indicator: TA98(NR), Metabolic Activation: NONE, Method: STANDARD PLATE) “active; positive”; under setting [16], “active; positive”; (Test System: CHINESE HAMSTER OVARY, Strain/Indicator: CHO (HGPRT), Metabolic Activation: NONE, Method: SUSPENSION) “active; positive”. The mutagenic call is, setting by setting: (Test System: CHINESE HAMSTER OVARY, Strain/Indicator: CHO-K1-BH4 (HGPRT), Metabolic Activation: NONE, Method: SUSPENSION) “active; positive”; (Test System: CHINESE HAMSTER OVARY, Strain/Indicator: CHO/HGPRT, Metabolic Activation: NONE) “active; positive”.
With `Cc1cc(Cl)ccc1OC(C)C(=O)O` (stereo not given), the mutagenic call is “inactive; negative” (Test System: AMES SALMONELLA TYPHIMURIUM, Strain/Indicator: TA97, Metabolic Activation: NONE, Method: STANDARD PLATE); “inactive; negative” (Test System: AMES SALMONELLA TYPHIMURIUM, Strain/Indicator: TA97, Metabolic Activation: RAT, LIVER, S-9, AROCLOR 1254, Method: STANDARD PLATE); “inactive; negative” under setting [16]; “inactive; negative” (Test System: AMES SALMONELLA TYPHIMURIUM, Strain/Indicator: TA98, Metabolic Activation: RAT, LIVER, S-9, AROCLOR 1254, Method: STANDARD PLATE); “inactive; negative” (Test System: AMES SALMONELLA TYPHIMURIUM, Strain/Indicator: TA100, Metabolic Activation: NONE, Method: STANDARD PLATE); “inactive; negative” (Test System: AMES SALMONELLA TYPHIMURIUM, Strain/Indicator: TA100, Metabolic Activation: RAT, LIVER, S-9, AROCLOR 1254, Method: STANDARD PLATE). For the same compound, the mutagenic call is “inactive; negative” under setting [15] and “inactive; negative” (Test System: AMES SALMONELLA TYPHIMURIUM, Strain/Indicator: TA102, Metabolic Activation: RAT, LIVER, S-9, AROCLOR 1254, Method: STANDARD PLATE).

The values are drawn from PubChem BioAssay AID1259407 (Chemical Carcinogenesis Research Information System (CCRIS), 2018).
